From patent EP0610519B1, “ANTI-HIV DRUG” (priority 1992, dated 1994)
Like-named read-outs stand apart in the source and are kept apart here.

Tests used:
[1] = system: HIV (type IIIB); assay: inhibition of budding of HIV from infected H-9 cells (reverse transcriptase activity per unit culture medium as index); format: cell-based; conditions: H-9 cells infected with HIV (type IIIB), 15 minutes treatment, then 360 minutes culture
Procedure: (§1) Human lymphocyte-derived H-9 cells, infected with HIV (type IIIB), were cultured in an RPMI-1640 medium (product of Biocell Laboratories) containing wortmannin and 10% fetal bovine serum (FBS) at 37°C for 15 minutes in a CO2 incubator. The H-9 cells thus obtained were washed with an RPMI-1640 medium, and then cultured in another RPMI-1640 medium containing 10% FBS at 37°C for 360 minutes in a CO2 incubator. The reverse transcriptase activity per unit culture medium was used as an index to determine the inhibitory effect of wortmannin on the budding of HIV.
(§2) The same test as mentioned above was repeated using MS-444 instead of wortmannin.

[2] = rat, in vivo
[3] = system: Human lymphocyte-derived H-9 cells; assay: host cell growth in the HIV budding test; conditions: concentration of 100 µM
Procedure: as §1, §2

| Structure (SMILES) | Budding of HIV (%) ([1]; 10 µM test compound) | Budding of HIV (%) ([1]; 100 µM test compound) | Budding of HIV (%) ([1]; 1000 µM test compound) | acute toxicity, mortality ([2]; ip, 100 mg/kg) | acute toxicity, mortality ([2]; po, 300 mg/kg) | Budding of HIV (%) ([1]; 0.1 µM test compound) | Budding of HIV (%) ([1]; 1.0 µM test compound) | Host cell growth [3] |
| --- | --- | --- | --- | --- | --- | --- | --- | --- |
| Cc1occ2c1C(=O)c1c(O)ccc(O)c1C2 [MS-444] | 95 | 82 | 20 | no rats died | no rats died |  |  |  |
| COC[C@H]1OC(=O)c2coc3c2[C@@]1(C)C1=C(C3=O)[C@@H]2CCC(=O)[C@@]2(C)C[C@H]1OC(C)=O [Wortmannin] | 39 |  |  |  |  | 67 | 49 | not influenced |
